pEC50: −log10 of the molar value. Where a SMILES comes first, the peptide text is derived from it. [ ]: non-standard residue; d: D form. The star is where a group is joined. Dolaproine = CO[C@@H]([C@@H]1CCCN1)[C@@H](C)C(=O)O; Dil = CC[C@H](C)[C@H](NC)[C@@H](CC(=O)O)OC; X1 = C[C@@H](N*)[C@@H](O)c1ccccc1; NMeV = CN[C@H](C(=O)O)C(C)C
Each compound was assayed on NIH:OVCAR-3 cells (assay: Cell proliferation (MTT) assay, NIH:OVCAR-3). Settings: NIH:OVCAR-3, 72 h.
Type: cell-based, human
Protocol: (§1) The human colon cancer LS174T cell line was cultured in RPMI-1640 medium supplemented with 2 mM glutamine and 10% heat inactivated fetal calf serum. The human ovary carcinoma NIH:OVCAR-3 cell line was cultured in RPMI-1640 medium supplemented with 1 mM sodium pyruvate, 10 mM HEPES, 2 mM glutamine, 10 pg/mL bovine insulin and 20% fetal calf serum. The LS174T and NIH:OVCAR-3 cells were plated in 96-well plates at a 5000 cells/well density 24 h prior to the experiment. […] After 72 h incubation at 37° C., cell proliferation was assessed by an MTT assay. The proliferation assay was performed in triplicate.

Structure (SMILES)	pEC50
CC[C@H](C)[C@@H]([C@@H](CC(=O)N1CCC[C@H]1[C@H](OC)[C@@H](C)C(=O)N[C@H](C)[C@@H](O)c1ccccc1)OC)N(C)C(=O)[C@@H](NC(=O)[C@@H](NC)C(C)C)C(C)C [MMAE, Monomethyl auristatin E] (H-[NMeV]V[Dil][Dolaproine]-X1)	10.41

These compounds were tested on AVP0458-TCO-MMAE (assay: Tetrazine-induced MMAE release from diabody ADC (LC-SIM-MS, D8-MMAE standard)). Settings: 37° C., 24 h, PBS/plasma (1/1), 10 equiv of tetrazine.
Protocol: MMAE release from diabody ADC (AVP0458-TCO-MMAE) was determined by using a deuterated internal standard D8-MMAE. ADC (1.1×10^−10 moles bound MMAE) and D8-MMAE (1.1×10^−10 moles) and 10 equiv of tetrazine were incubated in 100 uL PBS/plasma (1/1) at 37° C. […] After vortexing, 10 min standing at −20° C. and centrifugation, the supernatants were separated from the protein pellets, diluted with five parts of PBS and the ratio MMAE/D8-MMAE was measured with LC-SIM-MS, affording the release yields (Table 3).

Structure (SMILES)	release (%), induced MMAE release from AVP0458-TCO-MMAE [%]
Cc1nnc(-c2ccc(NC(=O)CCCC(=O)NCCOCCOCCOCCOCCOCCOCCOCCOCCOCCOCCOCCNC(=O)CN3CCN(CC(=O)O)CCN(CC(=O)O)CCN(CC(=O)O)CC3)cn2)nn1 [Compound 3.4, 2,2′,2″-(10-(44-((6-(6-methyl-1,2,4,5-tetrazin-3-yl)pyridin-3-yl)amino)-2,40,44-trioxo-6,9,12,15,18,21,24,27,30,33,36-undecaoxa-3,39-diazatetratetracontyl)-1,4,7,10-tetraazacyclododecane-1,4,7-triyl)triacetic acid]	47 ± 0.3
CN(CCc1nnc(-c2ncccn2)nn1)C(=O)CCCC(=O)NC(CO)(CO)CO [Compound 4.15]	55 ± 0.4
Cc1nnc(-c2nccc(CNC(=O)OC(C)(C)C)n2)nn1 [Compound 4.17]	70 ± 0.1
Cc1nnc(-c2ncccn2)nn1 [Compound 4.1, 3-methyl-6-(pyrimidin-2-yl)-1,2,4,5-tetrazine]	69 ± 0.0
Cc1nnc(-c2nccc(CNC(=O)CCCC(=O)O)n2)nn1 [Compound 4.27]	66 ± 0.5
Cc1nnc(-c2nccc(C(=O)O)n2)nn1 [Compound 4.23]	69 ± 0.5
Cc1nnc(-c2nccnc2C)nn1 [Compound 4.20]	59 ± 0.3
Cc1nnc(C)nn1 [Compound 2.1, 3,6-dimethyl-1,2,4,5-tetrazine]	95 ± 0.4
Cc1nnc(-c2cnccn2)nn1 [Compound 4.18]	55 ± 0.8
Cc1nnc(-c2ccncn2)nn1 [Compound 4.19]	60 ± 0.1
Cc1nnc(-c2nccc(CNC(=O)CN(CCN(CC(=O)O)CC(=O)O)CC(=O)O)n2)nn1 [Compound 4.26]	59 ± 0.6

Each compound was assayed on LS174T cells (assay: Cell proliferation (MTT) assay, LS174T). Settings: 72 h.
Type: cell-based, human
Protocol: as §1

Structure (SMILES)	pEC50
CC[C@H](C)[C@@H]([C@@H](CC(=O)N1CCC[C@H]1[C@H](OC)[C@@H](C)C(=O)N[C@H](C)[C@@H](O)c1ccccc1)OC)N(C)C(=O)[C@@H](NC(=O)[C@@H](NC)C(C)C)C(C)C [MMAE, Monomethyl auristatin E] (H-[NMeV]V[Dil][Dolaproine]-X1)	9.56

Reference: patent publication US20210308207A1, “COMPOUNDS COMPRISING A LINKER FOR INCREASING TRANSCYCLOOCTENE STABILITY” (Tagworks Pharmaceuticals B.V., priority 2018, published 2021)
